The results in this text go back to PubChem BioAssay (NCI).

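These data come from cells grown in 96-well plates and exposed to compound for 48 hours at five concentrations. TGI denotes the concentration required for complete inhibition of growth.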 Where a SMILES comes first, the peptide text is derived from it. The star is where a group is joined. Boc = CC(C)(C)OC(=O)* Bounds are passed on as bounds.

What all share (assay): NCI anticancer screen, dose series, 48 h
Test [1] has as its system SK-OV-3 ovarian.
Test [2] concerns HOP-92 NSCLC.
The subject of test [3] is HS 578T breast.
Test [4] deals with A549 NSCLC.
The test system of test [5] is NCI-H522 lung.
Test [6] relates to RXF 393 renal.

As for `COc1cccc(/C=C2\S/C(=N/Nc3nc(-c4ccc([N+](=O)[O-])cc4)cs3)NC2=O)c1O`, the TGI in test [1] worked out at 79.8 µM; in test [2], 33.6 µM; in test [3] it was 74.1 µM; in test [4], 39.6 µM.

As to `O=C(N/N=C(/COc1ccccc1)N=Cc1cccnc1)c1ccncc1`, the TGI in test [5], in test [6], in test [1], in test [3] and in test [4] was above 100 µM throughout.

Turning to `CCOC(=O)c1nnc2c(C#N)c(-c3ccccc3)c(C)n2c1N`, the TGI in test [5] was 70.5 µM; in test [6] it was above 100 µM; in test [1], above 100 µM; in test [3], 85.7 µM; in test [4], above 100 µM.

For the compound `CC(=O)OC(Cc1c(O)c2c(C)cccc2oc1=O)C(C)(C)O` (stereo not drawn), the TGI in test [5], in test [1], in test [3] and in test [4] was above 100 µM each time.

For the compound `Cc1ccc(C(=O)N/N=C(\N=Nc2ccc(C(=O)O)cc2)c2ccc(N(CCC#N)CCC#N)cc2C)cc1`, the TGI in test [6], in test [1], in test [2] and in test [4] was above 100 µM throughout.

As for `ON=C(CC(O)(C(F)(F)Cl)C(F)(F)Cl)CC(O)(C(F)(F)Cl)C(F)(F)Cl`, the TGI in test [5] was above 10 µM; in test [6] it was 7.79 µM; in test [1] it was above 10 µM; in test [3] it was above 10 µM; in test [4], above 10 µM.

As for `COC(=O)[C@H](Cc1ccc(O)cc1)NC(=O)[C@H](Cc1ccc(O)cc1)NC(=O)OC(C)(C)C` (Boc-Tyr-Tyr-OMe), the TGI in test [5], in test [6], in test [1], in test [3] and in test [4] was above 100 µM throughout.

Take `COc1ccc(-c2c(C#N)c(S)n(NS(=O)(=O)c3ccccc3)c(=O)c2C#N)cc1`: the TGI in test [5] was 73 µM; in test [6], above 100 µM; in test [1], above 100 µM; in test [3], above 100 µM; in test [4], above 100 µM.

For `CC(=O)OC(C)(C)CCC(=O)[C@](C)(O)[C@H]1[C@H](O)C[C@@]2(C)[C@@H]3CCc4c(cc(OC5OC(CO)C(O)C(O)C5O)c(O)c4C)C3(C)C(=O)C[C@]12C` (stereo partly drawn), the TGI in test [5], in test [6], in test [1], in test [2] and in test [4] was above 100 µM in each case.

Take `CCOC1CC(C)N(C(=O)c2ccccc2)O1` (stereo not drawn): the TGI in test [6], in test [1], in test [2], in test [3] and in test [4] was above 100 µM throughout.

Turning to `c1ccc2c(c1)OC(N1CCCC1)c1cnc(N3CCOCC3)nc1-2` (stereo not drawn), the TGI in test [6] is 60.4 µM; in test [1] it was above 100 µM; in test [2], 55.6 µM; in test [3], above 100 µM; in test [4], above 100 µM.

`Cc1n(Cc2ccccc2)nc2sc(N)n[n+]12`: the TGI in test [5], in test [6], in test [1], in test [3] and in test [4] was above 100 µM throughout.

Turning to `O=c1oc2c(Cl)cc(Cl)cc2cc1C1=CSC2=NCCN12`, the TGI in test [6], in test [1], in test [2] and in test [4] was above 100 µM in each case.

Take `CCOC(=O)c1nc2ccc(C(F)(F)F)cc2nc1Oc1ccc(C(=O)OC)cc1`: the TGI in test [6], in test [1], in test [2] and in test [3] was above 100 µM each time.

In the case of `CC(=O)Oc1ccc2c3c1O[C@H]1[C@H](O)CC[C@@]4(O)[C@@H](C2)N(C)CC[C@]314`, the TGI in test [5], in test [1], in test [2], in test [3] and in test [4] was above 100 µM throughout.

With `Fc1ccc(C(OCCN2CC3CCC(C2)N3CCCc2ccccc2)c2ccc(F)cc2)cc1`, the TGI in test [5] is 5.15 µM; in test [1], 23.3 µM; in test [2], 21.1 µM; in test [3] it was 13.6 µM; in test [4] it was 21.5 µM.

For `CC[C@@]1(O)C(=O)OCc2c1cc1n(c2=O)Cc2c-1nc1ccccc1c2/C=N/NC(=O)c1ccc(N)cc1`, the TGI in test [6] is 0.22 µM; in test [1], above 100 µM; in test [3] it was above 100 µM; in test [4] it was above 100 µM.

Regarding `CC(Cl)CC(=O)OCC1CCCN2CCCCC12` (stereo not drawn), the TGI in test [6], in test [1], in test [2], in test [3] and in test [4] was above 100 µM throughout.

For `CCOC(=O)c1cccc(NC(=O)CI)c1`, the TGI in test [5] turned out to be 0.347 µM; in test [6] it was 2.74 µM; in test [1] it was 2.26 µM; in test [2] it was 3.57 µM; in test [4], 3.41 µM.

For `CCOc1ccc(N/C(=C(/C(Cl)=C(/Cl)NC(C)(C)C)[N+](=O)[O-])n2nnc3ccccc32)cc1`, the TGI is 41.8 µM in test [6], above 100 µM in test [1], 32.6 µM in test [3] and above 100 µM in test [4].

As to `COC(=O)C12OC3CO[Si](C(C)C)(C(C)C)O[Si](C(C)C)(C(C)C)OC3C1Oc1nc(=O)ccn12` (stereo not drawn), the TGI in test [6] stood at 30.6 µM; in test [1], 31.1 µM; in test [2], 27.7 µM; in test [3], 7.3 µM; in test [4] it was 28.6 µM.

With `CC1(C)N=C(C2CCCN2C(=O)OCc2ccccc2)OC1=O` (stereo not drawn), the TGI was above 100 µM in test [5]; 85.1 µM in test [6]; above 100 µM in test [1]; above 100 µM in test [3]; above 100 µM in test [4].

Regarding `CCOC(=O)NN(C(=O)OCC)c1c(C)cc(C)cc1C`, the TGI in test [5], in test [6], in test [1], in test [3] and in test [4] was above 100 µM throughout.

As to `COc1ccc(NC(=S)c2ccoc2C)cc1CC(=O)OC(C)C`, the TGI in test [5] was above 100 µM; in test [1], above 100 µM; in test [2], 67.9 µM; in test [3] it was above 100 µM; in test [4], above 100 µM.
